Test [1] has as its target T1, AEA-DA lipid probe targets in Neuro2a cells (Mus musculus, UniProt O88455).
T1 sequence (O88455 1-471): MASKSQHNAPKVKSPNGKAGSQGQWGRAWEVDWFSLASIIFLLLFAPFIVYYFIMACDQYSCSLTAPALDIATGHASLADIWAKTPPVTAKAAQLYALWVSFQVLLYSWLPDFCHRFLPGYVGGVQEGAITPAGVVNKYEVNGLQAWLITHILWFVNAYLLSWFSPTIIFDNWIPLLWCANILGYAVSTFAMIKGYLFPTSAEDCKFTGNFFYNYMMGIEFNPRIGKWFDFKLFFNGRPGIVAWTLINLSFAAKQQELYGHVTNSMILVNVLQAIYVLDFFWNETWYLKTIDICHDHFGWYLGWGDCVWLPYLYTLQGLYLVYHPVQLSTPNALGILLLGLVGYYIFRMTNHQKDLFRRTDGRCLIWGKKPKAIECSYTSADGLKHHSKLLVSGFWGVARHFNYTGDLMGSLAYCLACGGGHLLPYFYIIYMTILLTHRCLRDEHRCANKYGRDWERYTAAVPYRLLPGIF

Test [2] has as its target T2, AEA-DA lipid probe targets in Neuro2a cells (Mus musculus, UniProt P61759).
T2 sequence (P61759 1-196): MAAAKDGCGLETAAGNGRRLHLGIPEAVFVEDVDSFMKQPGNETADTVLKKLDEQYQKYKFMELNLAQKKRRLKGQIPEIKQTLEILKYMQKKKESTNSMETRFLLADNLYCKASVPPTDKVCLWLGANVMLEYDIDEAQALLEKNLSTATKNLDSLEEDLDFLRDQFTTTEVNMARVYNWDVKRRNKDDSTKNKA

For test [3], the target named is T3, AEA-DA lipid probe targets in Neuro2a cells (Mus musculus, UniProt Q8VDP6).
T3 sequence (Q8VDP6 1-213): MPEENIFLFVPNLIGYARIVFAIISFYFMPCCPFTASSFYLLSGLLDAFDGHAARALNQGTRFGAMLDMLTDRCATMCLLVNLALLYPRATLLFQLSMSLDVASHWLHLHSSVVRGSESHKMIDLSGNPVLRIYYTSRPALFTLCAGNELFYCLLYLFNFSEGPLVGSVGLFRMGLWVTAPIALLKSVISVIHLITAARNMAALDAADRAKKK

For test [4], the target named is T4, AEA-DA lipid probe targets in Neuro2a cells (Mus musculus, UniProt Q91X78).
T4 sequence (Q91X78 1-348): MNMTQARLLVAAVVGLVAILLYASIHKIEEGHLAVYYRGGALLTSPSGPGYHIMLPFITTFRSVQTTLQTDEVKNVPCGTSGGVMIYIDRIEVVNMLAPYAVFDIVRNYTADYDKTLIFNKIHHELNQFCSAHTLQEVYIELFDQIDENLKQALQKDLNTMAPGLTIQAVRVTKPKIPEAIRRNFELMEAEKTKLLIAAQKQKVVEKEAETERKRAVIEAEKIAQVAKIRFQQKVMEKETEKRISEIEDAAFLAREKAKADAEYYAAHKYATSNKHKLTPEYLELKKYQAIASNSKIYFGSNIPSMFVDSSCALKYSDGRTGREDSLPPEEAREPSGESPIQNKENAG

The target in test [5] is T5, AEA-DA lipid probe targets in Neuro2a cells (Mus musculus, UniProt Q91XD7).
T5 sequence (Q91XD7 30-420): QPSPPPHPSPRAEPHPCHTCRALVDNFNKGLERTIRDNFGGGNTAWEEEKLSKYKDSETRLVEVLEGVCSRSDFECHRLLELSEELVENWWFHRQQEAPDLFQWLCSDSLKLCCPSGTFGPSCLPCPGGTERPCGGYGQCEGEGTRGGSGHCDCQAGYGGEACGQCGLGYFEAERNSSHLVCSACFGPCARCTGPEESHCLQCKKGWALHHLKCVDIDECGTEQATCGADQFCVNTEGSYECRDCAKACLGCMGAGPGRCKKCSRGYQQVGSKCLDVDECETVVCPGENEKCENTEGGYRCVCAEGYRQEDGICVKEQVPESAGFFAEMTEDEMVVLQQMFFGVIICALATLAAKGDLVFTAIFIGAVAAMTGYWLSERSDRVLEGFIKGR

Test [6] addresses T6, AEA-DA lipid probe targets in Neuro2a cells (Mus musculus, UniProt Q9WV54).
T6 sequence (Q9WV54 19-394): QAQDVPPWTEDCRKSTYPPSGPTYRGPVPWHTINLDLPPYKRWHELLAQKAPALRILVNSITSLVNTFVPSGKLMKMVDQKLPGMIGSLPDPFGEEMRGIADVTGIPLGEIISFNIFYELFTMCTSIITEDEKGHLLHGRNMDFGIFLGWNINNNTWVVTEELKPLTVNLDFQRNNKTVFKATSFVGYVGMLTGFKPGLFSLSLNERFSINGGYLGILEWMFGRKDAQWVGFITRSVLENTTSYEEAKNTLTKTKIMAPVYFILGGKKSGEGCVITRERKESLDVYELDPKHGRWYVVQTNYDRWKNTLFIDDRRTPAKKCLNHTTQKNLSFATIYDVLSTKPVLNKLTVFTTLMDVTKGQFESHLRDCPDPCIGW

The target in test [7] is AEA-DA lipid probe targets in Neuro2a cells (Mus musculus, UniProt Q9Z2I0).
The target of test [8] is T7, AEA-DA lipid probe targets in Neuro2a cells (Mus musculus, UniProt Q9Z2Z6).
T7 sequence (Q9Z2Z6 1-301): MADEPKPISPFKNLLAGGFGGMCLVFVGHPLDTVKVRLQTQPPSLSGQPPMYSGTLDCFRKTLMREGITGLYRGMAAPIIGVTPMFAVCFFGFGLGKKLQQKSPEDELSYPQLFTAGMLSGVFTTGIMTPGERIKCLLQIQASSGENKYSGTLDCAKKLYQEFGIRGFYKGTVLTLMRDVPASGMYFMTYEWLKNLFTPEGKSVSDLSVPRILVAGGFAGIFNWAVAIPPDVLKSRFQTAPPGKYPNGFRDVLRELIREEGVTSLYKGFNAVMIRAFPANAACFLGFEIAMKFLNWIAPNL

Data on five compounds can be found in patent publication US10168342B2, “Lipid probes and uses thereof” (THE SCRIPPS RESEARCH INSTITUTE, priority 2015, dated 2019).

SMILES strings stand for the structures. Where two headings read alike, the source gives them in different places.

Chain of AEA-DA lipid probe targets in Neuro2a cells (Mus musculus, UniProt Q9Z2I0) (Q9Z2I0 115-738): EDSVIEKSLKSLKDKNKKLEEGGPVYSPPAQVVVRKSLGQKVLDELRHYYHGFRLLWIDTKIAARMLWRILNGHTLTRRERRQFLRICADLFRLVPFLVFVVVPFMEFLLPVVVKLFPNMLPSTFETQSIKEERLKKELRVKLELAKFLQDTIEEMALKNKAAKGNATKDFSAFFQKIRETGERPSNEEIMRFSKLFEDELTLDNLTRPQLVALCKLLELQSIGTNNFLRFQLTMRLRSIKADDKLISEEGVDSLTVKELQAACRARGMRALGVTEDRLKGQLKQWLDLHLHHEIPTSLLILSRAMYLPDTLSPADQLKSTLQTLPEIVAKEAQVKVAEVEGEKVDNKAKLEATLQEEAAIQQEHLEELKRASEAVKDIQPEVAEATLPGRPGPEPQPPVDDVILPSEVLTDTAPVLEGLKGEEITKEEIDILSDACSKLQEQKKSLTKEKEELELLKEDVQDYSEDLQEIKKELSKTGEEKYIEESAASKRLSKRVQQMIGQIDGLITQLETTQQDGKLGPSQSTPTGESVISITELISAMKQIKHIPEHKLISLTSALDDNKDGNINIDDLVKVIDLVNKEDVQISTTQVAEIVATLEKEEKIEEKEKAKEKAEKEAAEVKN

With `CCCCC/C=C\C/C=C\C/C=C\C/C=C\CCCC(=O)NCCO` [AEA, anandamide, reference compound], in test [1] (competitor 200 μM), the “SILAC ratio Dhcr7” value worked out at 1.5. In addition, the “SILAC ratio, Vbp1” value in test [2] (competitor 200 μM) is recorded as 1.1. Further, the “SILAC ratio, Cdipt” value in test [3] (competitor 200 μM) came to 1.8. Also, in test [4] (competitor 200 μM), the “SILAC ratio Erlin1” value came to 1.7. Further, in test [5] (competitor 200 μM), the “SILAC ratio, Creld1” value amounted to 1.8. In addition, in test [6] (competitor 200 μM), the “SILAC ratio Asah1” value was found to be 0.8. In addition, in test [7] (competitor 200 μM), the “SILAC ratio Letm1” value is 0.6. Further, in test [8] (competitor 200 μM), the “SILAC ratio Slc25a20” value was found to be 1.6.

With `C=CCN(C)CCCCCCOc1ccc(C(=O)c2ccc(Br)cc2)c(F)c1` [Ro 48-8071, reference compound], the “SILAC ratio Dhcr7” value in test [1] (competitor 25 μM) is given as 0.8. Also, the “SILAC ratio, Vbp1” value in test [2] (competitor 25 μM) was 0.9. Also, in test [3] (competitor 25 μM), the “SILAC ratio, Cdipt” value is recorded as 0.7. The “SILAC ratio Erlin1” value in test [4] (competitor 25 μM) is 1.2. In addition, the “SILAC ratio, Creld1” value in test [5] (competitor 25 μM) is on record as 1.4. In addition, the “SILAC ratio Asah1” value in test [6] (competitor 25 μM) was found to be 1.0. The “SILAC ratio Letm1” value in test [7] (competitor 25 μM) came out at 1.3. Moreover, the “SILAC ratio Slc25a20” value in test [8] (competitor 25 μM) is on record as 1.2.

With `CN1CCN(C(=O)c2c(-c3ccccc3)c3cc([N+](=O)[O-])ccc3n2C)CC1` [KML110, (1-Methyl-5-nitro-3-phenyl-1H-indol-2-yl)(4-methylpiperazin-1-yl)methanone], in test [1] (competitor 25 μM), the “SILAC ratio Dhcr7” value was 1.2. For the same compound, the “SILAC ratio, Vbp1” value in test [2] (competitor 25 μM) is 1.6. Further, in test [3] (competitor 25 μM), the “SILAC ratio, Cdipt” value was 0.9. For the same compound, in test [5] (competitor 25 μM), the “SILAC ratio, Creld1” value is reported as 1.8. For the same compound, the “SILAC ratio Asah1” value in test [6] (competitor 25 μM) is listed as 1.2. For the same compound, the “SILAC ratio Letm1” value in test [7] (competitor 25 μM) came out at 1.1. Further, the “SILAC ratio Slc25a20” value in test [8] (competitor 25 μM) came to 1.5.

On to `O=C(/C=C/c1cccnc1)NCCCCC1CCN(C(=O)c2ccccc2)CC1` [FK-866, reference compound], for which, in test [1] (competitor 25 μM), the “SILAC ratio Dhcr7” value is reported as 0.9. Moreover, in test [2] (competitor 25 μM), the “SILAC ratio, Vbp1” value is reported as 1.1. The “SILAC ratio, Cdipt” value in test [3] (competitor 25 μM) worked out at 1.1. Further, in test [4] (competitor 25 μM), the “SILAC ratio Erlin1” value is listed as 1.0. For the same compound, the “SILAC ratio, Creld1” value in test [5] (competitor 25 μM) is recorded as 1.3. In addition, the “SILAC ratio Asah1” value in test [6] (competitor 25 μM) is 1.3. The “SILAC ratio Letm1” value in test [7] (competitor 25 μM) is 1.5. Further, the “SILAC ratio Slc25a20” value in test [8] (competitor 25 μM) stood at 1.4.

With `CN1CCN(C(=O)c2[nH]c3ccc([N+](=O)[O-])cc3c2-c2ccccc2)CC1` [MJN228, (4-Methylpiperazin-1-yl)(5-nitro-3-phenyl-1H-indol-2-yl)methanone], the “SILAC ratio Dhcr7” value in test [1] (competitor 10 μM) was found to be 1.1; in test [1] (competitor 25 μM) it was 1.2; in test [1] (competitor 50 μM), 1.5; in test [1] (competitor 100 μM), 1.7. Moreover, the figures for the “SILAC ratio, Vbp1” value in test [2] (competitor 25 μM), in test [2] (competitor 50 μM) and in test [2] (competitor 100 μM) were 1.5, 0.9 and 2.0, respectively. Further, the “SILAC ratio, Cdipt” value in test [3] (competitor 10 μM) is listed as 1.0; in test [3] (competitor 25 μM) it was 1.0; in test [3] (competitor 50 μM), 0.7; in test [3] (competitor 100 μM), 0.8. Also, the results for the “SILAC ratio Erlin1” value in test [4] (competitor 10 μM), in test [4] (competitor 25 μM) and in test [4] (competitor 100 μM) were 1.4, 1.1 and 1.1, respectively. Further, the “SILAC ratio, Creld1” value in test [5] (competitor 10 μM) came to 1.4; in test [5] (competitor 25 μM), 1.8; in test [5] (competitor 50 μM) it was 2.4; in test [5] (competitor 100 μM), 4.2. Further, the “SILAC ratio Asah1” value in test [6] (competitor 10 μM) stood at 1.4; in test [6] (competitor 25 μM) it was 1.6; in test [6] (competitor 50 μM) it was 2.2; in test [6] (competitor 100 μM), 2.1. For the same compound, the “SILAC ratio Letm1” value is recorded as 1.3 in test [7] (competitor 10 μM), 1.5 in test [7] (competitor 25 μM), 1.2 in test [7] (competitor 50 μM) and 1.1 in test [7] (competitor 100 μM). Besides, the “SILAC ratio Slc25a20” value in test [8] (competitor 10 μM) is listed as 1.4; in test [8] (competitor 25 μM), 1.4; in test [8] (competitor 50 μM) it was 2.4; in test [8] (competitor 100 μM), 3.4.
